Test results: US11124526B2, “Crystalline beta-lactamase inhibitor” (Allecra Therapeutics SAS, priority 2013, dated 2021)
≈ marks a conversion by molar mass, not a printed value.

Tests used:
Type in all cases: physicochemical
[1] = Solubility of amorphous compound of formula (I) in selected solvents (slurry stirred 4 hours, mother liquor by HPLC); conditions: thermodynamic from solid
Description: Solubility values of solvents were calculated with respect to the HPLC response factor, set out in FIG. 12.
HPLC response factor was calculated for the amorphous compound of formula (I) using samples dissolved in acetonitrile/water 9/1 with the following method: • Column: ZORBAX Eclipse XDB-C18 (150×4.6 mm, 5 μm) • Temperature: 25° C. • Mobile phase: A: 0.05M Sodium ortophosphate/water, B: Acetonitrile • Gradient: from 5% of B to 95% of B in 10 min • Detector: UV λ=220 nm
Slurries of the amorphous compound of formula (I) in the selected solvents were prepared and stirred at 20° C. and 40° C. for 4 hours. • Samples of each slurry were filtered and the mother liquors injected in HPLC. • The solid residual were isolated and analyzed by XRPD. • The results are summarized in the following Table 4.

[2] = Inventors' findings on hygroscopicity and stability of amorphous versus crystalline compound of formula (I)
[3] = Stability tests of Form F stored at controlled temperature and RH
[4] = Dynamic Vapor Sorption (DVS) of Form F; conditions: 25° C.
Description: Kinetic moisture sorption measurements were performed at 25° C. and at relative humidity (RH % target as follows: • From 40% RH to 90% RH • Form 90% RH to 0% RH • From 0% RH to 90% RH • From 90% RH to 0% RH The kinetic moisture sorption measurement was performed at 25° C. and in a RH % range described in the following: • From 40% RH to 90% RH • Form 90% RH to 0% RH • From 0% RH to 90% RH • From 90% RH to 0% RH The experiment is performed on 10-15 mg of sample and the equilibrium criterion is set as dm/dt<0.002% w/w in 10 min with a maximum step time of 240 min.

[5] = Hygroscopicity of Form F (% weight change at 25° C. and 80% RH)
Description: The hygroscopicity was calculated using the following equation: % Weight Change=[(W2−W1)W1]*100 wherein, • W1 is weight of sample at the start of the experiment; and • W2 is weight of sample at 25° C. and 80% RH in the first absorption cycle.

[6] = Solubility assessment of Form C in saline physiological solution (HPLC)
Description: The Form C solubility was calculated by HPLC employing a dedicated walk-up method. The product obtained by the scaled up procedure described in Example 13 was used to perform the experiments.
1.9 g of the product was suspended in 1 ml of commercial physiologic solution (0.9% of NaCl) at ambient temperature (˜20 ° C.). The suspension resulted slightly opaque and quite viscous after 30 min. After this time the suspension was sampled and the sample injected in HPLC to determine its concentration. After 2 hrs stirring the solid residue was completely dissolved. The addition of more solid was not performed to avoid the gelatinisation of the viscous solution. A sample was taken and injected in HPLC to determine its concentration. The solution was stirred other 3 hrs and sampled again. The 5 hrs sample was also injected in HPLC to determine its concentration.

[7] = 25° C. and 80% RH, first absorption cycle

Q: With `C[n+]1ccn(C[C@@]2(C)[C@H](C(=O)[O-])N3C(=O)C[C@H]3S2(=O)=O)n1` [amorphous compound of formula (I), (2S,3S,5R)-3-methyl-3-((3-methyl-1H-1,2,3-triazol-3-ium-1-yl)methyl)-7-oxo-4-thia-1-azabicyclo[3.2.0]heptane-2-carboxylate 4,4-dioxide] as the compound, how does the solubility at 4 h ([1]; organic solvent or mixture, 1-butanol, 20° C.) read?
A: 97 mg/mL

Q: What about the solubility at 4 h ([1]; organic solvent or mixture, 1-butanol, 40° C.) of the same compound?
A: 167 mg/mL

Q: What about the solubility at 4 h ([1]; organic solvent or mixture, 1-propanol, 20° C.) of the same compound?
A: 295 mg/mL

Q: And the solubility at 4 h ([1]; organic solvent or mixture, 1-propanol, 40° C.)?
A: > 400 mg/mL

Q: What about the solubility at 4 h ([1]; organic solvent or mixture, 2-propanol, 20° C.) of the same compound?
A: 23 mg/mL

Q: And the solubility at 4 h ([1]; organic solvent or mixture, 2-propanol, 40° C.)?
A: 28 mg/mL

Q: And the solubility at 4 h ([1]; organic solvent or mixture, Acetonitrile, 20° C.)?
A: 6 mg/mL

Q: What about the solubility at 4 h ([1]; organic solvent or mixture, Dimethylsulfoxide, 20° C.) of the same compound?
A: > 400 mg/mL

Q: And the solubility at 4 h ([1]; organic solvent or mixture, Dimethylsulfoxide, 40° C.)?
A: > 400 mg/mL

Q: What about the solubility at 4 h ([1]; organic solvent or mixture, Ethanol, 20° C.) of the same compound?
A: 420 mg/mL

Q: And the solubility at 4 h ([1]; organic solvent or mixture, Ethanol, 40° C.)?
A: > 420 mg/mL

Q: And the solubility at 4 h ([1]; organic solvent or mixture, Ethanol/acetone 20%, 20° C.)?
A: > 300 mg/mL

Q: And the solubility at 4 h ([1]; organic solvent or mixture, Ethanol/acetone 40%, 20° C.)?
A: > 300 mg/mL

Q: What about the solubility at 4 h ([1]; organic solvent or mixture, Ethanol/methyl tert-butyl ether 20%, 20° C.) of the same compound?
A: 52 mg/mL

Q: And the solubility at 4 h ([1]; organic solvent or mixture, Ethanol/methyl tert-butyl ether 40%, 20° C.)?
A: 16 mg/mL

Q: What about the solubility at 4 h ([1]; organic solvent or mixture, Methanol, 20° C.) of the same compound?
A: > 400 mg/mL

Q: What about the solubility at 4 h ([1]; organic solvent or mixture, Methanol, 40° C.) of the same compound?
A: > 400 mg/mL

Q: What about the solubility at 4 h ([1]; Water, 20° C.) of the same compound?
A: > 400 mg/mL

Q: And the solubility at 4 h ([1]; Water, 40° C.)?
A: > 400 mg/mL

Q: What about the “Hygroscopicity (statement in words)” value [2] of the same compound?
A: hygroscopic

Q: What about the Stability when stored ([2]; stored at room temperature) of the same compound?
A: limited stability

Q: Which results are given for `C[n+]1ccn(C[C@@]2(C)[C@H](C(=O)[O-])N3C(=O)C[C@H]3S2(=O)=O)n1` [Form F, (2S,3S,5R)-3-methyl-3-((3-methyl-1H-1,2,3-triazol-3-ium-1-yl)methyl)-7-oxo-4-thia-1-azabicyclo[3.2.0]heptane-2-carboxylate 4,4-dioxide]?
A: Stability on storage (appearance) ([3]; after a day at 25° C. and 60% RH): becomes a viscous liquid; Stability on storage (appearance) ([3]; after a day at 60° C. and 75% RH): becomes a viscous liquid; Relative humidity up to which the form is stable (DVS) [4]: approximately 50 % RH; Weight increase (DVS) ([4]; at 90% RH): greater than 50 % w/w; Water sorption behaviour after the weight increase at 90% RH (DVS) ([4]; following cycles): releases and takes water reversibly; Hygroscopicity classification [5, 7]: very hygroscopic; Mass increase (% Weight Change) [5, 7]: greater than 15%; Appearance at high humidity ([5]; high humidity): becomes a viscous liquid

Q: Which “Formation of impurities in physiologic solution (HPLC traces)” value ([6]; 0.9% NaCl, ambient temperature, up to 5 hrs) does the source give for `C[n+]1ccn(C[C@@]2(C)[C@H](C(=O)[O-])N3C(=O)C[C@H]3S2(=O)=O)n1` [Form C, (2S,3S,5R)-3-methyl-3-((3-methyl-1H-1,2,3-triazol-3-ium-1-yl)methyl)-7-oxo-4-thia-1-azabicyclo[3.2.0]heptane-2-carboxylate 4,4-dioxide] here?
A: did not show the formation of significant impurities

Q: And the solubility at 30 min ([6]; physiologic solution (0.9% NaCl), saline or isotonic, thermodynamic from solid, physiologic solution (0.9% of NaCl), ~20 ° C., timepoint 30 mins, read-out: Solubility (mg/ml) at ambient temperature)?
A: 772 mg/mL (≈ 2460 mM)

Q: What about the solubility at 2 h ([6]; physiologic solution (0.9% NaCl), saline or isotonic, thermodynamic from solid, physiologic solution (0.9% of NaCl), ~20 ° C., timepoint 2 hours, solid completely dissolved, read-out: Solubility (mg/ml) at ambient temperature) of the same compound?
A: > 883 mg/mL

Q: What about the solubility at 5 h ([6]; physiologic solution (0.9% NaCl), saline or isotonic, thermodynamic from solid, physiologic solution (0.9% of NaCl), ~20 ° C., timepoint 5 hours, read-out: Solubility (mg/ml) at ambient temperature) of the same compound?
A: > 812 mg/mL
